Results taken from ChEMBL document CHEMBL1151351, “Antineoplastic Agents. 67. Senecio fendleri Gray” (1980).

Assays:
P388 [1] = assay: In vivo antitumor activity against mouse P388 cells at 2 mg/kg relative to control; type: functional
P388 [2] = assay: In vivo antitumor activity against mouse P388 cells at 5 mg/kg relative to control; type: functional

Row | Structure (SMILES) | T/C (P388 [1]) | T/C (P388 [2])
1 | COC(=O)CC1(O)C=CC(=O)C=C1 [JACARANONE] | 165% | –
2 | CCOC(=O)CC1(O)C=CC(=O)C=C1 | – | 120%
